# In ChEMBL document CHEMBL4354780, “Targeting S. mutans biofilms: a perspective on preventing dental caries” (Medchemcomm, 2019):
# Tests used:
# Streptococcus mutans [1] = assay: Antibiofilm activity against Streptococcus mutans assessed as inhibition of biofilm formation on hydroxyapatite surface at 5 ug/ml relative to control; assay type: functional
# [2] = Binding affinity to Streptococcus mutans GtfC
# [3] = Binding affinity to Streptococcus mutans GtfB
# Streptococcus mutans [4] = assay: Antibiofilm activity against Streptococcus mutans assessed as inhibition of biofilm formation; assay type: functional, organism-based; conditions: for IC50: Streptococcus mutans
# Streptococcus mutans [5] = assay: Antibiofilm activity against Streptococcus mutans assessed as inhibition of biofilm formation on using surface coated compound at 0.06 uM relative to control; assay type: functional
# Streptococcus mutans [6] = assay: Antibiofilm activity against 24 hrs-old biofilm of Streptococcus mutans assessed as reduction in cell viability at 5 ug/ml relative to control; assay type: functional
# Streptococcus mutans [7] = assay: Antibiofilm activity against 24 hrs-old biofilm of Streptococcus mutans assessed as reduction in cell viability at 10 ug/ml relative to control; assay type: functional
# Streptococcus mutans [8] = assay: Antibiofilm activity against Streptococcus mutans assessed as inhibition of biofilm formation at 12.5 ug/ml relative to control; assay type: functional
# Streptococcus mutans [9] = assay: Antibiofilm activity against Streptococcus mutans assessed as inhibition of biofilm formation by measuring drug level causing induction of micro-colony phenotype; assay type: functional
# Streptococcus mutans [10] = assay: Antibiofilm activity against Streptococcus mutans assessed as decrease in biofilm viability at 0.053 to 53 uM by LIVE/DEAD staining based assay relative to control; assay type: functional
# Sortase A = biological target: T1, Sortase A (Streptococcus mutans, UniProt Q8CM62); assay: Binding affinity to Streptococcus mutans Sortase A
# T1 sequence (Q8CM62 whole entry): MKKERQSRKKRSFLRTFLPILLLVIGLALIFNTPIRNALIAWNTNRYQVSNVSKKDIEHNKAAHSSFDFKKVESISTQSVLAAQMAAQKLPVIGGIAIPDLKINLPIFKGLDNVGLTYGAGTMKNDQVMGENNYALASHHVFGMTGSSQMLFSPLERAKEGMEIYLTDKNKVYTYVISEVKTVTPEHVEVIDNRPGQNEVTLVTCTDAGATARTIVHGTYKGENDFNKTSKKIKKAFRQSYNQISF
# Streptococcus mutans [11] = assay: Antibacterial activity against Streptococcus mutans; assay type: organism-based
# Streptococcus mutans [12] = assay: Antibiofilm activity against 24 hrs-old biofilm of Streptococcus mutans assessed as reduction in cell viability relative to control; assay type: functional
# Streptococcus mutans [13] = assay: Antibacterial activity against Streptococcus mutans assessed as inhibition of planktonic growth relative to control; assay type: organism-based
# Streptococcus mutans [14] = assay: Antibiofilm activity against Streptococcus mutans assessed as reduction in cell viability at 50 ug/ml relative to control; assay type: functional
# Streptococcus mutans [15] = assay: Inhibition of Streptococcus mutans F-ATPase activity relative to control; conditions: concentration not given here
# Streptococcus mutans [16] = assay: Antibiofilm activity against Streptococcus mutans assessed as reduction in biomass at 0.63 ug/ml relative to control; assay type: functional
# [17] = Inhibition of Streptococcus mutans LiaS autophosphorylation activity
# [18] = Inhibition of Streptococcus mutans CiaH autophosphorylation activity
# [19] = Inhibition of Streptococcus mutans VicK autophosphorylation activity
# Streptococcus mutans [20] = assay: Antibiofilm activity against Streptococcus mutans assessed as inhibition of biofilm formation at 250 uM on saliva-coated glass slides relative to control; assay type: functional
# Streptococcus mutans [21] = assay: Antibiofilm activity against Streptococcus mutans assessed as inhibition of biofilm formation by measuring reduction in cell adherence at sub-MIC level relative to control; assay type: functional
# Streptococcus mutans [22] = assay: Antibiofilm activity against Streptococcus mutans assessed as inhibition of biofilm formation at 200 ug/ml after 4 hrs by Congo red staining based assay relative to control; assay type: functional
# Streptococcus mutans [23] = assay: Antibiofilm activity against Streptococcus mutans assessed as inhibition of biofilm formation at 200 ug/ml after 4 hrs by crystal violet staining based assay relative to control; assay type: functional
compound,measurement,setting,value
Cc1cc(O)c2c(c1)C(=O)c1cc(O)cc(O)c1C2=O [EMODIN],inhibition at 5 µg/mL,Streptococcus mutans [1],90%
Oc1ccc(/C=C/c2cc(O)cc(O)c2)cc1 [RESVERATROL],Kd,[2],510 µM
same,Kd,[3],144 µM
C[C@H]1/C=C/[C@H]2OC(C)(C)O[C@H]2C(=O)O[C@H](c2cccc(CCCCC(=O)O)c2)[C@@H](C)CCC1,MBIC50,Streptococcus mutans [4],63 µM
O=C1C=C/C(=C\Br)O1,inhibition at 0.06 µM,Streptococcus mutans [5],63%
COc1ccc(CCNc2nc3ccccc3nc2NCCc2ccc(OC)cc2)cc1,inhibition at 5 µg/mL,Streptococcus mutans [6],46%
same,inhibition at 10 µg/mL,Streptococcus mutans [7],79%
NC(=O)c1ccccc1NC(=O)c1cc2cc([N+](=O)[O-])ccc2s1,inhibition at 12.5 µg/mL,Streptococcus mutans [8],85%
same,Kd,[2],0.0469 µM
same,Kd,[3],3.7 µM
C=CCc1ccc(O)c(OC)c1 [EUGENOL],INH,Streptococcus mutans [9],0.3125 µg/mL
CO[C@H](CC(=O)O)[C@@H](C)C(=O)[C@H](C)/C=C(\C)[C@H]1OC(=O)[C@H](O)[C@H](O)/C=C/[C@H](C)CCC[C@@H]1C,inhibition (INH),Streptococcus mutans [10],55 - 65%
COc1cc(/C=C/C(=O)CC(=O)/C=C/c2ccc(O)c(OC)c2)ccc1O [CURCUMIN],IC50,Sortase A,10.2 µM
same,MIC,Streptococcus mutans [11],125 µM
O=C1C=C(Br)/C(=C/Br)O1,inhibition (INH),Streptococcus mutans [12],60%
CCCCCCCCCCCCCCCc1c[nH]c(N)n1.Cl,IC50,Streptococcus mutans [4],0.94 µM
same,growth inhibition (GI),Streptococcus mutans [13],< 13%
Cc1cccc(N/C=C2/C=C(c3ccc(Cl)cc3)OC2=O)n1,inhibition at 50 µg/mL,Streptococcus mutans [14],75%
Oc1cc(O)cc(/C=C/c2ccc(O)c(O)c2)c1 [PICEATANNOL],Kd,[2],14.6 µM
same,IC50,Streptococcus mutans [4],52 µM
O=C(O[C@@H]1Cc2c(O)cc(O)cc2O[C@@H]1c1cc(O)c(O)c(O)c1)c1cc(O)c(O)c(O)c1 [EPIGALOCATECHIN GALLATE],inhibition,Streptococcus mutans [15],50%
same,MBIC90,Streptococcus mutans [4],15.6 µg/mL
same,MIC,Streptococcus mutans [11],31.25 µg/mL
CCC(C)C1(O)C(C)C(=O)c2c(c(OC)c3ccc(-c4ccc5c(Cl)c6c(c(O)c5c4O)C(=O)C(C)C(O)(C(C)C)C6/C(=C\C(=O)O)OC)c(O)c3c2O)C1/C(C)=C\C(=O)O (stereo not given),inhibition at 0.63 µg/mL,Streptococcus mutans [16],60%
same,IC50,[17],4.96 µg/mL
same,IC50,[18],4.29 µg/mL
same,IC50,[19],2.53 µg/mL
O=c1c(O)c(-c2ccc(O)cc2O)oc2cc(O)cc(O)c12 [MORIN],IC50,Sortase A,27.2 µM
O=C(/C=C/c1ccccc1)c1ccccc1 [CHALCONE],IC50,Sortase A,5 µM
same,inhibition at 250 µM,Streptococcus mutans [20],90%
CCC[C@@H]1CCC[C@]2(CCC)C(=O)CCC[C@@H]12,MBIC50,Streptococcus mutans [4],39 µg/mL
same,inhibition (INH),Streptococcus mutans [21],50%
same,MIC,Streptococcus mutans [11],156.25 µg/mL
CCCCCCCCCCCCCCCCCC(=O)Oc1cc(C(=O)O[C@@H]2Cc3c(O)cc(O)cc3O[C@@H]2c2cc(OC(=O)CCCCCCCCCCCCCCCCC)c(O)c(OC(=O)CCCCCCCCCCCCCCCCC)c2)cc(OC(=O)CCCCCCCCCCCCCCCCC)c1O,inhibition at 200 µg/mL,Streptococcus mutans [22],100%
same,inhibition at 200 µg/mL,Streptococcus mutans [23],100%
